In PMC7523345 (Investigational new drugs, 2018):
Entries after “also recorded” stand apart in the source; their conditions may differ.

Experiment: Phase I dose escalation study: safety, tolerability, DLT and MTD
Assay type: in vivo

With Cc1cccc2c1NC(=O)[C@@H](NC(=O)[C@H](CCC(F)(F)F)[C@H](CCC(F)(F)F)C(N)=O)N=C2c1cccc(F)c1 [BMS-986115] the “Leucocytosis (drug related AE, Grade 3 and 4)” value (Arm A QD 2.0 mg (N = 7)) was 0 n (%), the “Mouth ulceration (drug related AE, all grades)” value (Arm A QD 2.0 mg (N = 7)) was 1 (14) n (%) and the “Nausea (drug related AE, Grade 3 and 4)” value (Arm A QD 2.0 mg (N = 7)) was 1 (14) n (%). The “Nausea (drug related AE, all grades)” value (Arm A QD 2.0 mg (N = 7)) was 5 (71) n (%), the “Pruritus (drug related AE, Grade 3 and 4)” value (Arm A QD 2.0 mg (N = 7)) was 1 (14) n (%) and the “Pruritus (drug related AE, all grades)” value (Arm A QD 2.0 mg (N = 7)) was 3 (43) n (%). The “Pulmonary embolism (drug related AE, Grade 3 and 4)” value (Arm A QD 2.0 mg (N = 7)) was 0 n (%), the “Rash (drug related AE, all grades)” value (Arm A QD 2.0 mg (N = 7)) was 1 (14) n (%) and the “Rash maculopapular (drug related AE, all grades)” value (Arm A QD 2.0 mg (N = 7)) was 2 (29) n (%). The “Sinusitis (drug related AE, all grades)” value (Arm A QD 2.0 mg (N = 7)) was 0 n (%), the “Urticaria (drug related AE, Grade 3 and 4)” value (Arm A QD 2.0 mg (N = 7)) was 1 (14) n (%) and the “Vision blurred (drug related AE, all grades)” value (Arm A QD 2.0 mg (N = 7)) was 0 n (%). The “Vomiting (drug related AE, Grade 3 and 4)” value (Arm A QD 2.0 mg (N = 7)) was 1 (14) n (%), the “Vomiting (drug related AE, all grades)” value (Arm A QD 2.0 mg (N = 7)) was 5 (71) n (%) and the “Weight decreased (drug related AE, all grades)” value (Arm A QD 2.0 mg (N = 7)) was 0 n (%). For the same compound, the “No. of patients with DLTs” value (Arm A QD 2.0 mg, 5 DLT evaluable patients) was 3, the “Abdominal distension (drug related AE, all grades)” value (Arm A QD Total (N = 24)) was 1 (4) n (%) and the “Abdominal pain (drug related AE, Grade 3 and 4)” value (Arm A QD Total (N = 24)) was 1 (4) n (%). The “Abdominal pain (drug related AE, all grades)” value (Arm A QD Total (N = 24)) was 2 (8) n (%), the “Blood creatinine increased (drug related AE, all grades)” value (Arm A QD Total (N = 24)) was 1 (4) n (%) and the “Colitis (drug related AE, Grade 3 and 4)” value (Arm A QD Total (N = 24)) was 1 (4) n (%). For the same compound, the “Cough (drug related AE, Grade 3 and 4)” value (Arm A QD Total (N = 24)) was 1 (4) n (%), the “Cough (drug related AE, all grades)” value (Arm A QD Total (N = 24)) was 3 (13) n (%) and the “Decreased Appetite (drug related AE, Grade 3 and 4)” value (Arm A QD Total (N = 24)) was 0 n (%). The “Decreased Appetite (drug related AE, all grades)” value (Arm A QD Total (N = 24)) was 8 (33) n (%), the “Dehydration (drug related AE, Grade 3 and 4)” value (Arm A QD Total (N = 24)) was 0 n (%) and the “Dehydration (drug related AE, all grades)” value (Arm A QD Total (N = 24)) was 3 (13) n (%). The “Dermatitis acneiform (drug related AE, all grades)” value (Arm A QD Total (N = 24)) was 4 (17) n (%), the “Diarrhoea (drug related AE, Grade 3 and 4)” value (Arm A QD Total (N = 24)) was 4 (17) n (%) and the “Diarrhoea (drug related AE, all grades)” value (Arm A QD Total (N = 24)) was 18 (75) n (%). For the same compound, the “Dry mouth (drug related AE, all grades)” value (Arm A QD Total (N = 24)) was 2 (8) n (%), the “Dry skin (drug related AE, all grades)” value (Arm A QD Total (N = 24)) was 3 (13) n (%) and the “Dysgeusia (drug related AE, all grades)” value (Arm A QD Total (N = 24)) was 3 (13) n (%). The “Dyspepsia (drug related AE, all grades)” value (Arm A QD Total (N = 24)) was 2 (8) n (%), the “Dysphonia (drug related AE, all grades)” value (Arm A QD Total (N = 24)) was 4 (17) n (%) and the “Fatigue (drug related AE, Grade 3 and 4)” value (Arm A QD Total (N = 24)) was 1 (4) n (%). For the same compound, the “Fatigue (drug related AE, all grades)” value (Arm A QD Total (N = 24)) was 10 (42) n (%), the “Flatulence (drug related AE, all grades)” value (Arm A QD Total (N = 24)) was 0 n (%) and the “Hypocalcaemia (drug related AE, Grade 3 and 4)” value (Arm A QD Total (N = 24)) was 0 n (%). The “Hypocalcaemia (drug related AE, all grades)” value (Arm A QD Total (N = 24)) was 1 (4) n (%), the “Hypokalaemia (drug related AE, Grade 3 and 4)” value (Arm A QD Total (N = 24)) was 4 (17) n (%) and the “Hypokalaemia (drug related AE, all grades)” value (Arm A QD Total (N = 24)) was 7 (29) n (%). For the same compound, the “Hyponatraemia (drug related AE, Grade 3 and 4)” value (Arm A QD Total (N = 24)) was 1 (4) n (%), the “Hyponatraemia (drug related AE, all grades)” value (Arm A QD Total (N = 24)) was 1 (4) n (%) and the “Hypophosphataemia (drug related AE, Grade 3 and 4)” value (Arm A QD Total (N = 24)) was 8 (33) n (%). For the same compound, the “Hypophosphataemia (drug related AE, all grades)” value (Arm A QD Total (N = 24)) was 16 (67) n (%), the “Ileus (drug related AE, Grade 3 and 4)” value (Arm A QD Total (N = 24)) was 1 (4) n (%) and the “Increased upper airway secretion (drug related AE, all grades)” value (Arm A QD Total (N = 24)) was 0 n (%). For the same compound, the “Laryngeal pain (drug related AE, all grades)” value (Arm A QD Total (N = 24)) was 2 (8) n (%), the “Leucocytosis (drug related AE, Grade 3 and 4)” value (Arm A QD Total (N = 24)) was 0 n (%) and the “Mouth ulceration (drug related AE, all grades)” value (Arm A QD Total (N = 24)) was 2 (8) n (%). For the same compound, the “Nausea (drug related AE, Grade 3 and 4)” value (Arm A QD Total (N = 24)) was 3 (13) n (%), the “Nausea (drug related AE, all grades)” value (Arm A QD Total (N = 24)) was 15 (63) n (%) and the “Pruritus (drug related AE, Grade 3 and 4)” value (Arm A QD Total (N = 24)) was 1 (4) n (%). The “Pruritus (drug related AE, all grades)” value (Arm A QD Total (N = 24)) was 6 (25) n (%), the “Pulmonary embolism (drug related AE, Grade 3 and 4)” value (Arm A QD Total (N = 24)) was 1 (4) n (%) and the “Rash (drug related AE, all grades)” value (Arm A QD Total (N = 24)) was 8 (33) n (%). For the same compound, the “Rash maculopapular (drug related AE, all grades)” value (Arm A QD Total (N = 24)) was 2 (8) n (%), the “Sinusitis (drug related AE, all grades)” value (Arm A QD Total (N = 24)) was 2 (8) n (%) and the “Urticaria (drug related AE, Grade 3 and 4)” value (Arm A QD Total (N = 24)) was 1 (4) n (%). The “Vision blurred (drug related AE, all grades)” value (Arm A QD Total (N = 24)) was 1 (4) n (%), the “Vomiting (drug related AE, Grade 3 and 4)” value (Arm A QD Total (N = 24)) was 1 (4) n (%) and the “Vomiting (drug related AE, all grades)” value (Arm A QD Total (N = 24)) was 12 (50) n (%). For the same compound, the “Weight decreased (drug related AE, all grades)” value (Arm A QD Total (N = 24)) was 2 (8) n (%), the “Patients with dose limiting toxicities” value (Arm A QD, all dose levels) was “Four” and the “Treatment-related SAEs, description” value (Arm A QD, one line per subject) was “Gr 3 nausea with Gr 3 fatigue and Gr 4 hypophosphataemia; also recorded: Gr 3 ileus”. The “Maximum Tolerated Dose (MTD)” value (Arm A, once daily (QD) oral dosing) was 1.5 mg, the “Subjects with treatment-related SAEs” value (Arm B BIW) was 2 subjects and the “Abdominal distension (drug related AE, all grades)” value (Arm B BIW 2 mg (N = 2)) was 0 n (%). For the same compound, the “Abdominal pain (drug related AE, Grade 3 and 4)” value (Arm B BIW 2 mg (N = 2)) was 0 n (%).
